Measured values published in the supplement of paper PMC10307832.

Assays:
Assay in all cases: relative viability (nuclei count vs DMSO), 5 days (fraction); higher = more cells survive
Bortezomib + Luminespib = compound: CC(C)C[C@H](NC(=O)[C@H](Cc1ccccc1)NC(=O)c1cnccn1)B(O)O [Bortezomib] + CCNC(=O)c1noc(-c2cc(C(C)C)c(O)cc2O)c1-c1ccc(CN2CCOCC2)cc1 [Luminespib] (partner 0.01 µM)
In short: (§1)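 Dosing by pin tool came one day after lung cancer cell lines were seeded in 1536-well plates, using either one drug or a fixed anchor-drug dose plus five library-drug doses (not always all listed) in √10 steps. After 5 days, nuclei were counted on 4× images. Relative viability is treated-well nuclei count divided by vehicle-well nuclei count, and values are medians of duplicate plates.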

[1] = compound: CC1=CC(=NN1)NC2=CC(=NC(=N2)/C=C/C3=CC=CC=C3)N4CCN(CC4)C + CCNC(=O)c1noc(-c2cc(C(C)C)c(O)cc2O)c1-c1ccc(CN2CCOCC2)cc1 [Luminespib] (partner 0.01 µM)
In short: as §1

[2] = compound: CC1=CC(=NN1)NC2=CC(=NC(=N2)/C=C/C3=CC=CC=C3)N4CCN(CC4)C + Cc1cc(Nc2cc(N3CCN(C)CC3)nc(Sc3ccc(NC(=O)C4CC4)cc3)n2)n[nH]1 [Tozasertib] (partner 0.1 µM)
In short: as §1

[3] = compound: CC1=CC(=NN1)NC2=CC(=NC(=N2)/C=C/C3=CC=CC=C3)N4CCN(CC4)C + NC(=O)Nc1cc(-c2cccc(F)c2)sc1C(=O)N[C@H]1CCCNC1 [AZD7762] (partner 0.2 µM)
In short: as §1

NCI-H322M showed a relative viability (Bortezomib + Luminespib; first compound 0.0002 µM) of 0.736, a relative viability (Bortezomib + Luminespib; first compound 0.002 µM) of 0.729 and a relative viability (Bortezomib + Luminespib; first compound 0.006325 µM) of 0.386. It also gave a relative viability (Bortezomib + Luminespib; first compound 0.02 µM) of 0.322, a relative viability ([1]; first compound 0.08 µM) of 0.8 and a relative viability ([1]; first compound 0.253 µM) of 1.06. It also gave a relative viability ([1]; first compound 0.8 µM) of 0.639, a relative viability ([1]; first compound 2.53 µM) of 0.326 and a relative viability ([1]; first compound 8 µM) of 0.246. The relative viability ([2]; first compound 0.08 µM) was 0.509, the relative viability ([2]; first compound 0.253 µM) was 0.521 and the relative viability ([2]; first compound 0.8 µM) was 0.506. It also gave a relative viability ([2]; first compound 2.53 µM) of 0.3, a relative viability ([2]; first compound 8 µM) of 0.229 and a relative viability ([3]; first compound 0.08 µM) of 0.555. For the same cell line, the relative viability ([3]; first compound 0.253 µM) was 0.6, the relative viability ([3]; first compound 0.8 µM) was 0.615 and the relative viability ([3]; first compound 2.53 µM) was 0.403. For the same cell line, the relative viability ([3]; first compound 8 µM) was 0.302.
Work on NCI-H1666 yielded a relative viability (Bortezomib + Luminespib; first compound 0.0002 µM) of 0.951, a relative viability (Bortezomib + Luminespib; first compound 0.000632 µM) of 1.02 and a relative viability (Bortezomib + Luminespib; first compound 0.002 µM) of 0.98. The relative viability (Bortezomib + Luminespib; first compound 0.006325 µM) was 0.319, the relative viability (Bortezomib + Luminespib; first compound 0.02 µM) was 0.322 and the relative viability ([1]; first compound 0.08 µM) was 0.987. For the same cell line, the relative viability ([1]; first compound 0.253 µM) was 1.01, the relative viability ([1]; first compound 0.8 µM) was 1.02 and the relative viability ([1]; first compound 2.53 µM) was 0.985. The relative viability ([1]; first compound 8 µM) was 0.328, the relative viability ([2]; first compound 0.08 µM) was 0.559 and the relative viability ([2]; first compound 0.253 µM) was 0.549. It also gave a relative viability ([2]; first compound 0.8 µM) of 0.554, a relative viability ([2]; first compound 2.53 µM) of 0.336 and a relative viability ([2]; first compound 8 µM) of 0.298. For the same cell line, the relative viability ([3]; first compound 0.08 µM) was 0.892, the relative viability ([3]; first compound 0.253 µM) was 0.786 and the relative viability ([3]; first compound 0.8 µM) was 0.811. The relative viability ([3]; first compound 2.53 µM) was 0.701 and the relative viability ([3]; first compound 8 µM) was 0.501.
For NCI-H1437, the relative viability (Bortezomib + Luminespib; first compound 0.0002 µM) was 1.11, the relative viability (Bortezomib + Luminespib; first compound 0.000632 µM) was 1.07 and the relative viability (Bortezomib + Luminespib; first compound 0.002 µM) was 1.14. For the same cell line, the relative viability (Bortezomib + Luminespib; first compound 0.006325 µM) was 0.165, the relative viability (Bortezomib + Luminespib; first compound 0.02 µM) was 0.155 and the relative viability ([1]; first compound 0.08 µM) was 1.11. For the same cell line, the relative viability ([1]; first compound 0.253 µM) was 1.13, the relative viability ([1]; first compound 0.8 µM) was 1.13 and the relative viability ([1]; first compound 2.53 µM) was 0.996. The relative viability ([1]; first compound 8 µM) was 0.53, the relative viability ([2]; first compound 0.08 µM) was 0.422 and the relative viability ([2]; first compound 0.253 µM) was 0.462. For the same cell line, the relative viability ([2]; first compound 0.8 µM) was 0.424, the relative viability ([2]; first compound 2.53 µM) was 0.344 and the relative viability ([2]; first compound 8 µM) was 0.201. For the same cell line, the relative viability ([3]; first compound 0.08 µM) was 1.17, the relative viability ([3]; first compound 0.253 µM) was 1.17 and the relative viability ([3]; first compound 0.8 µM) was 1.21. The relative viability ([3]; first compound 2.53 µM) was 1.05 and the relative viability ([3]; first compound 8 µM) was 0.416.
For NCI-H1944, the relative viability (Bortezomib + Luminespib; first compound 0.0002 µM) was 0.715, the relative viability (Bortezomib + Luminespib; first compound 0.000632 µM) was 0.697 and the relative viability (Bortezomib + Luminespib; first compound 0.002 µM) was 0.763. The relative viability (Bortezomib + Luminespib; first compound 0.006325 µM) was 0.548, the relative viability (Bortezomib + Luminespib; first compound 0.02 µM) was 0.167 and the relative viability ([1]; first compound 0.08 µM) was 0.63. It also gave a relative viability ([1]; first compound 0.253 µM) of 1.06, a relative viability ([1]; first compound 0.8 µM) of 0.815 and a relative viability ([1]; first compound 2.53 µM) of 0.553. It also gave a relative viability ([1]; first compound 8 µM) of 0.164, a relative viability ([2]; first compound 0.08 µM) of 0.266 and a relative viability ([2]; first compound 0.253 µM) of 0.284. For the same cell line, the relative viability ([2]; first compound 0.8 µM) was 0.223, the relative viability ([2]; first compound 2.53 µM) was 0.184 and the relative viability ([2]; first compound 8 µM) was 0.136. The relative viability ([3]; first compound 0.08 µM) was 0.539, the relative viability ([3]; first compound 0.253 µM) was 0.524 and the relative viability ([3]; first compound 0.8 µM) was 0.469. It also gave a relative viability ([3]; first compound 2.53 µM) of 0.229 and a relative viability ([3]; first compound 8 µM) of 0.117.
Cell Line NCI-H1355 has a relative viability (Bortezomib + Luminespib; first compound 0.0002 µM) of 0.668, a relative viability (Bortezomib + Luminespib; first compound 0.000632 µM) of 0.657 and a relative viability (Bortezomib + Luminespib; first compound 0.002 µM) of 0.645. It also gave a relative viability (Bortezomib + Luminespib; first compound 0.006325 µM) of 0.233, a relative viability (Bortezomib + Luminespib; first compound 0.02 µM) of 0.167 and a relative viability ([1]; first compound 0.08 µM) of 0.744. It also gave a relative viability ([1]; first compound 0.253 µM) of 0.644, a relative viability ([1]; first compound 0.8 µM) of 0.682 and a relative viability ([1]; first compound 2.53 µM) of 0.47. The relative viability ([1]; first compound 8 µM) was 0.129, the relative viability ([2]; first compound 0.08 µM) was 0.536 and the relative viability ([2]; first compound 0.253 µM) was 0.502. The relative viability ([2]; first compound 0.8 µM) was 0.511, the relative viability ([2]; first compound 2.53 µM) was 0.173 and the relative viability ([2]; first compound 8 µM) was 0.129. It also gave a relative viability ([3]; first compound 0.08 µM) of 0.779, a relative viability ([3]; first compound 0.253 µM) of 0.802 and a relative viability ([3]; first compound 0.8 µM) of 0.778. It also gave a relative viability ([3]; first compound 2.53 µM) of 0.581 and a relative viability ([3]; first compound 8 µM) of 0.15.
NCI-H2342 showed a relative viability (Bortezomib + Luminespib; first compound 0.0002 µM) of 1.01, a relative viability (Bortezomib + Luminespib; first compound 0.000632 µM) of 0.748 and a relative viability (Bortezomib + Luminespib; first compound 0.002 µM) of 0.699. For the same cell line, the relative viability (Bortezomib + Luminespib; first compound 0.006325 µM) was 0.791, the relative viability (Bortezomib + Luminespib; first compound 0.02 µM) was 0.382 and the relative viability ([1]; first compound 0.08 µM) was 0.543. For the same cell line, the relative viability ([1]; first compound 0.253 µM) was 0.699, the relative viability ([1]; first compound 0.8 µM) was 0.705 and the relative viability ([1]; first compound 2.53 µM) was 0.546. For the same cell line, the relative viability ([1]; first compound 8 µM) was 0.536, the relative viability ([2]; first compound 0.08 µM) was 0.527 and the relative viability ([2]; first compound 0.253 µM) was 0.503. For the same cell line, the relative viability ([2]; first compound 0.8 µM) was 0.438, the relative viability ([2]; first compound 2.53 µM) was 0.376 and the relative viability ([2]; first compound 8 µM) was 0.324. The relative viability ([3]; first compound 0.08 µM) was 0.368, the relative viability ([3]; first compound 0.253 µM) was 0.535 and the relative viability ([3]; first compound 0.8 µM) was 0.589. For the same cell line, the relative viability ([3]; first compound 2.53 µM) was 0.371 and the relative viability ([3]; first compound 8 µM) was 0.256.
